16 compounds from PubChem BioAssay (NCI) can be followed below.

Assay in all cases: growth of human tumour cells (NCI), 48 h
The subject of test [1] is SK-OV-3 ovarian.
Test [2] has as its system MDA-MB-231 breast.
For test [3], the system named is SNB-19 CNS.
Test [4] concerns A549 NSCLC.
Test [5] concerns HL-60(TB) leukemia.
The subject of test [6] is EKVX NSCLC.
For test [7], the system named is HCT-116 colon.
Test [8] relates to DU-145 prostate.
Test [9] concerns UO-31 renal.
Test [10] has as its system SR leukemia.

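Each compound was tested at five concentrations against cells in 96-well plates for 48 hours. Abbreviation: GI50, concentration required for 50% inhibition of growth. Definition used: TGI = concentration required for complete inhibition of growth.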

For `COc1ccc(CNCCN2C(=O)c3ccc4c5c(ccc(c35)C2=O)C(=O)N(CCNCc2ccc(OC)c(OC)c2OC)C4=O)c(OC)c1OC`, the GI50 in test [1] was 1.67 µM; in test [2], 0.239 µM; in test [3], 0.429 µM. The TGI turned out to be 50 µM in test [1], 2.37 µM in test [2] and 4.13 µM in test [3].
Turning to `CC(=O)[C@H]1CC[C@@H]2[C@]1(C)CC=C1[C@]23C=C[C@]2(C[C@@H](O)CC[C@]12C)C(C(=O)O)C3C(=O)O` (stereo partly specified), the TGI in test [4], in test [5], in test [6], in test [7], in test [8] and in [1] was more than 100 µM in each case. Also, the TGI in test [2], in [9] and in test [3] was more than 100 µM in each case.
As to `CN(C)c1ccc(/C=C(\C#N)C(=O)c2ccccc2)cc1Br`, the TGI in [4] was more than 100 µM; in test [5] it was 57.6 µM; in [10] it was more than 100 µM; in test [6], more than 100 µM; in test [7], more than 100 µM; in test [1] it was more than 100 µM. The TGI in test [9] and in test [3] was more than 100 µM throughout.
Consider `CC(C)C(N=C1CC2CCC1(C(=O)Nc1ccccc1O)C2(C)C)c1ccccc1` (stereo unspecified), for which the TGI in test [4], in test [5], in test [10], in [6], in test [7] and in test [1] was more than 10 µM throughout. For the same compound, the TGI in [9] and in test [3] was more than 10 µM throughout.
In the case of `O=C(C#Cc1ccccc1)Nc1ccccc1CC(c1c[nH]c2ccccc12)c1c[nH]c2ccccc12`, the TGI in test [4] was more than 100 µM; in test [6], 86.1 µM; in test [1] it was more than 100 µM; in test [9], more than 100 µM; in test [3], more than 100 µM.
Turning to `O=S1(=O)OCCOS(=O)(=O)C1C1c2ccccc2-c2ccccc21`, the TGI was more than 100 µM in test [4]; 58.9 µM in [5]; more than 100 µM in test [6]; more than 100 µM in test [7]; more than 100 µM in [8]; more than 100 µM in test [1]. In addition, the results for the TGI in test [2], in [9] and in test [3] were more than 100 µM, 93.2 µM and more than 100 µM, respectively.
On to `Cn1c(SCc2ccc([N+](=O)[O-])cc2)nnc1C12CC3CC(CC(C3)C1)C2`, for which the TGI in [4], in test [5], in [6], in test [7], in [8] and in [1] was more than 10 µM in each case. For the same compound, the TGI in test [2], in [9] and in [3] was more than 10 µM throughout.
On to `Cn1cnc([N+](=O)[O-])c1Sc1nnc(-c2ccc(Cl)cc2)n1C`, for which the TGI in [4] was more than 100 µM; in test [10], 33.7 µM; in [6] it was 20.4 µM; in test [7] it was 25.8 µM; in test [1] it was more than 100 µM; in test [9], 32.8 µM. In test [3], this compound returned a TGI of more than 100 µM.
In the case of `COc1ccc(-c2oc(C=Nc3ccccc3)c([N+](=O)[O-])c2-c2ccc(OC)c(OC)c2)cc1OC`, the TGI in test [4], in test [5], in [10], in [7], in test [1] and in test [9] was more than 100 µM throughout. Besides, in [3], the TGI was more than 100 µM.
As for `O=C(Cn1cc(I)c(C(=O)NCC(O)CO)n1)NCC(O)CO` (stereo unspecified), the TGI in test [4], in test [5], in [6], in test [7], in test [1] and in [9] was more than 100 µM in each case. Moreover, the TGI in [3] was more than 100 µM.
For the compound `CCC(/C(=N/NC(=O)C[N+](C)(C)C)c1ccccc1)C1OC(=O)c2ccccc21` (stereo unspecified), the TGI in test [4], in test [5], in test [10], in test [7], in [1] and in test [9] was more than 100 µM each time. In test [3], the TGI is more than 100 µM.
For `C#CCn1c(=O)c2cc(OC)c(OC)cc2n(CC#C)c1=O`, the TGI in test [4], in test [6], in test [7], in [8], in [1] and in [2] was more than 10 µM in each case. Besides, the TGI in [9] and in test [3] was more than 10 µM each time.
`CCOC1=C2N=C(C(CC)c3ccc(F)cc3)N=C2C(=O)c2ccccc21` (stereo unspecified): the TGI in [4] is more than 85.8 µM; in [5] it was more than 73.7 µM; in test [10] it was 89.2 µM; in test [6], more than 79.7 µM; in test [7] it was more than 61.3 µM; in [1] it was more than 100 µM. For the same compound, the TGI in test [9] was 55.5 µM; in test [3], more than 100 µM.
Take `CCN(CC)CCNC(=O)C1COc2ccc(-c3cc(=O)c4ccccc4o3)cc2O1` (stereo unspecified): the TGI in test [4] was found to be 49.8 µM; in [5], 30.8 µM; in test [6] it was 61 µM; in test [7], 32.7 µM; in test [1], 47 µM; in test [9] it was 29.6 µM. Moreover, the TGI in test [3] was found to be 59.9 µM.
Turning to `O=C(/C=C/c1cc2ccccc2[nH]c1=O)c1ccc(O)cc1`, the GI50 is 2.73 µM in test [4]; 2.66 µM in test [5]; 13.4 µM in test [6]; 1.94 µM in test [7]; 4.02 µM in test [8]; 3.51 µM in [2]. The figures for the GI50 in [9] and in [3] were 4.38 µM and 4.59 µM, respectively. Further, the TGI amounted to 11.8 µM in test [4]; 6.86 µM in test [5]; 27.2 µM in test [6]; 4.38 µM in [7]; 14.3 µM in test [8]; 15 µM in [2]. In addition, the figures for the TGI in test [9] and in [3] were 26.7 µM and 18 µM, respectively.
With `O=C1C2Cc3ccccc3CN2C(=O)N1CN1CCCCC1` (stereo unspecified), the TGI is more than 100 µM in test [4]; 88.3 µM in test [5]; more than 100 µM in test [10]; more than 100 µM in test [9]; more than 100 µM in test [3].
